Test results from patent US20110201499A1, “Method of Improving Plant Yield of Soybeans by Treatment with Herbicides” (priority 2010, published 2011).

Test system: Soybean (FG72 trait)
Test: in-field research trial of herbicidal treatment effect on soybean yield
Type: in vivo
Conditions: isoxaflutole 35 g ai/ha soil treatment pre-emergence, then one application of glyphosate 1060 g ai/ha plus ammonium sulfate 2850 g ai/ha; weed free check = 100%; averaged across four replications; moisture standardized; Fithian, Ill.
Description: Soybean seed was secured for an in-field research trial. The soybean seed is genetically modified to be tolerant to applications of HPPD (4-hydroxyphenyl-pyruvate-dioxygenase) inhibiting herbicides (example: BALANCE PRO or isoxaflutole) and glyphosate (ROUNDUP ORIGINAL MAX). The trait is known as FG72.
The site was conventionally tilled and free of weeds at the time of planting. The soybean seed was planted in 30″ rows on Jun. 18, 2008. Broadcast spray treatments of a first herbicidal treatment composition comprising isoxaflutole were applied using a tractor mounted sprayer on Jun. 20, 2008. All areas of the field, including a weed-free check (control) that was not treated with isoxaflutole, were additionally treated on Jun. 20, 2008, with PURSUIT PLUS herbicide, a combination of 2.24% imazethapyr and 30.24% pendimethalin, available from BASF. The application was made prior to soybean and weed emergence.
To avoid any interference of weed effects on yield in the trial, the entire trial site was kept weed free for the entire growing season. […]
The trial was evaluated for herbicidal treatment effect on yield. […] Data was entered into and analyzed with ARM computer software. […] Treatment differences were determined using least significant differences (LSD, P=0.05).

Q: For CS(=O)(=O)c1cc(C(F)(F)F)ccc1C(=O)c1cnoc1C1CC1 [isoxaflutole, 5-cyclopropyl-4-(2-methylsulfonyl-4-trifluoromethylbenzoyl) isoxazole], which “soybean seed yield as percent of the weed free check” value is on record?
A: 108.5%
